By TGI is commonly meant the concentration giving total growth inhibition. Read a high TGI as lower sensitivity of the cells. Broadly, the GI50 is the concentration that inhibits growth by half.

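Cultured in 96-well plates, cells were exposed to test compound for 48 hours across five concentrations. GI50 = concentration required for 50% inhibition of growth. TGI denotes the concentration required for complete inhibition of growth.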

Common to all, as to assay: DTP human tumour cell line panel, 48 h
The test system of test [1] is HOP-92 NSCLC.
For test [2], the system named is SF-268 CNS.
Test [3] deals with SK-MEL-5 melanoma.
The test system of test [4] is OVCAR-3 ovarian.
Test [5] has as its system CCRF-CEM leukemia.
Test [6] relates to NCI-H23 lung.
The test system of test [7] is RXF 393 renal.
The subject of test [8] is NCI/ADR-RES ovarian.
Test [9] relates to MCF7 breast.

On to `O=C1CSC(C(N=Nc2ccc(Cl)cc2)c2nc3ccccc3[nH]2)=N1` (stereo not given), for which the TGI was over 100 µM in test [1]; over 100 µM in test [2]; 88.4 µM in test [3]; over 100 µM in test [4]; over 100 µM in test [5]; over 100 µM in test [6].

Regarding `CCCCc1c2c(nc3c1CC/C(=C\c1ccc([N+](=O)[O-])cc1)C3=O)CCCC2`, the TGI came out at 3.93 µM in [2], 2.63 µM in test [7], 3.14 µM in test [4] and 6.68 µM in test [5].

Regarding `COc1cc2cc3c4c(cc(OC)c(OC)c4c2cc1OC)CCN3C(=O)CCC(=O)O`, the concentration for total growth inhibition (TGI) in [1], in test [2], in test [7], in [3], in [4] and in test [5] was over 100 µM throughout. Further, the concentration for total growth inhibition (TGI) in test [6] was over 100 µM.

Turning to `CCN(CC)CC(=O)Nc1ccc2c(c1)C(=O)c1ccc(NC(=O)CN(CC)CC)cc1C2=O`, the concentration for total growth inhibition (TGI) in test [1] is over 100 µM; in test [2], 82.7 µM; in test [7] it was 29.7 µM; in [3], 48.9 µM; in test [5], over 100 µM; in [6] it was over 100 µM.

For the molecule `COc1ccc(-c2nc3c(nc2-c2ccc(OC)cc2)N(C)S(=O)(=O)N=C3N)cc1`, the concentration for total growth inhibition (TGI) in test [1] is 51.6 µM; in test [2], over 100 µM; in test [7], 44.1 µM; in test [3] it was 26.2 µM; in test [4], 31 µM; in test [5], over 100 µM. For the same molecule, in [6], the TGI was over 100 µM.

Consider `Cc1cc(C)c(C(=O)/C=C/c2ccccc2)c(C)c1`, for which the total growth inhibition concentration (TGI) in [1] was 58.4 µM; in test [2] it was 50.6 µM; in test [7] it was 34.5 µM; in [3] it was over 100 µM; in [5] it was over 100 µM; in test [6], 97.9 µM.

As to `COc1ccc2c(c1)CCN1C3=C(CCC3)C(=O)C[C@@H]21`, the TGI in test [1], in test [2], in test [7], in test [3], in test [4] and in [5] was over 100 µM each time. This molecule registered a TGI in test [6] of over 100 µM.

Consider `Cn1c(=O)c2nc(NCCO)cnc2n(C)c1=O`, for which the TGI in test [1] is over 100 µM; in test [2], over 100 µM; in test [7] it was 81.5 µM; in [3], over 100 µM; in test [4] it was 57.9 µM; in test [5] it was over 100 µM. In test [6], this molecule displayed a TGI of over 100 µM.

For `Clc1cccc2c1OCC1C(c3ccccc3)=NN(c3ccccc3)C21` (stereo not given), the TGI in [1] was over 100 µM; in test [2] it was over 100 µM; in test [7] it was over 100 µM; in test [3] it was 90.7 µM; in test [4], over 100 µM; in [5] it was over 100 µM. For the same molecule, the TGI in test [6] was over 100 µM.

Consider `O=[N+]([O-])c1ccc(COc2cccc3cccnc23)cc1`, for which the TGI is over 100 µM in test [1]; 68.7 µM in test [2]; over 100 µM in test [7]; 58.4 µM in [3]; over 100 µM in test [4]; 23.7 µM in test [5]. In test [6], this molecule showed a concentration for total growth inhibition (TGI) of over 100 µM.

As to `CC(C)(SCc1ccccc1)C(N)C(=O)O` (stereo not given), the TGI in test [1], in test [2], in test [7], in [3], in [4] and in test [5] was over 100 µM in each case. Further, the TGI in test [8] and in test [6] was over 100 µM each time.

For `CCc1c(C)c2ccc(OCC(=O)N=Nc3c(O)[nH]c4ccccc34)c(C)c2oc1=O`, the GI50 in [1] was 0.69 µM; in test [3] it was 1.06 µM; in [9] it was 0.992 µM; in [5], 1.34 µM; in [8] it was over 33.3 µM; in [6] it was 1.13 µM. Further, the TGI was 1.56 µM in test [1]; over 33.3 µM in test [3]; over 33.3 µM in test [9]; over 33.3 µM in test [5]; over 33.3 µM in [8]; over 33.3 µM in test [6].

Turning to `Cc1ccc(C)c(COCCOCn2c(=O)[nH]c(=O)c3cc(Br)ccc32)c1`, the concentration for total growth inhibition (TGI) in test [1], in [2], in [7], in test [4], in test [9] and in test [5] was over 100 µM in each case. For the same molecule, the TGI in [8] and in [6] was over 100 µM each time.

On to `O=P1(Oc2ccccc2)NCc2ncccc2O1` (stereo not given), for which the TGI in test [1], in [7], in test [3], in test [4], in test [9] and in [5] was over 100 µM each time. Also, the TGI in test [8] and in test [6] was over 100 µM in each case.

The record behind these values is PubChem BioAssay (NCI).
